# Target: T1, human ferroportin (Homo sapiens, UniProt Q9NP59)
# T1 construct: luciferase reporter (read with the Nano-Glo Luciferase Assay System); expressed in transfected cells; host or cells: CHO cells, stably transfected, expression induced with doxycycline
# T1 sequence (Q9NP59 1-571): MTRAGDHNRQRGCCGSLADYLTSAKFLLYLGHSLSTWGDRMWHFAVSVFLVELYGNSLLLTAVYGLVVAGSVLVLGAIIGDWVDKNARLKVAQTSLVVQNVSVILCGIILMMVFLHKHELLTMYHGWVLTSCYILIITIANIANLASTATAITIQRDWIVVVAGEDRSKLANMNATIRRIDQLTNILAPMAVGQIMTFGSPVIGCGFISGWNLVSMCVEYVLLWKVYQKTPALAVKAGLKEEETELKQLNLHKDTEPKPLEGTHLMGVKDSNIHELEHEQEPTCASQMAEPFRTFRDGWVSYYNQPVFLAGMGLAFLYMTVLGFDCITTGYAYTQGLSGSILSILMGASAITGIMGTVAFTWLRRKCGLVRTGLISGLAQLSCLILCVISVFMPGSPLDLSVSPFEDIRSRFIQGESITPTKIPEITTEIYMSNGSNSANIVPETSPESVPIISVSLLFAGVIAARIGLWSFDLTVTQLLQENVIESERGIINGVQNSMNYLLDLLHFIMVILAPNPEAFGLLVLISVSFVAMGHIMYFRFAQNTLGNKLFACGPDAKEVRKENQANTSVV
# Assay: Biological in-vitro ferroportin internalization assay (luciferase reporter)
# Format: cell-based
# Details: average pEC50; stably-transfected CHO cell line expressing human ferroportin tagged to a luciferase reporter; 6 h incubation with test compound
# Procedure: The protocol for this assay is generally as described in WO2018/128828, incorporated herein by reference in its entirety. Functional internalization of ferroportin protein was measured using a stably-transfected CHO cell line expressing the human ferroportin tagged to a luciferase reporter. Cells were plated for 24 h in the presence of ferric ammonium citrate (FAC). Ferroportin protein expression was induced with doxycycline for 24 h. The next day, the compounds were added. Test compounds were dissolved in DMSO. Cells were incubated with the test compounds for 6 h, and subsequently luciferase activity was measured using the Nano-Glo Luciferase Assay System and Glomax (Promega, Madison, Wis.). The average pEC50 was determined for the test compounds.
row,SMILES,pEC50
1,"COc1ccnc(-c2nc3c(c(N4CCCCCC4)n2)CCC3)c1 [Compound 53, 1-[2-(4-methoxypyridin-2-yl)-5H,6H,7H-cyclopenta[d]pyrimidin-4-yl]azepane]",6.6
2,"COc1ccnc(-c2nc3c(c(N4CCCO[C@@H]5CCC[C@@H]54)n2)CCC3)c1 [Compound 54, 2-{4-[(5aS,8aR)-octahydro-2H-cyclopenta[b][1,4]oxazepin-5-yl]-5H,6H,7H-cyclopenta[d]pyrimidin-2-yl}-4-methoxypyridine]",6.9
3,"CC1(C)CC[C@@H](Nc2nc(-c3ccccn3)nc3c2CCC3)C(=O)N1 [Compound 55, (3R)-6,6-dimethyl-3-{[2-(pyridin-2-yl)-5H,6H,7H-cyclopenta[d]pyrimidin-4-yl]amino}piperidin-2-one]",6.3
4,"CC1(C)CC[C@H](Nc2nc(-c3ccccn3)nc3c2CCC3)C(=O)N1 [Compound 56, (3S)-6,6-dimethyl-3-{[2-(pyridin-2-yl)-5H,6H,7H-cyclopenta[d]pyrimidin-4-yl]amino}piperidin-2-one]",6.7
5,"Cc1cnc(CCNC(=O)CN(C)c2nc(-c3ccccn3)nc3c2CCC3)n1C1CCC1 [Compound 69, N-[2-(1-cyclobutyl-5-methyl-1H-imidazol-2-yl)ethyl]-2-{methyl[2-(pyridin-2-yl)-5H,6H,7H-cyclopenta[d]pyrimidin-4-yl]amino}acetamide]",7
6,"CN(CC(=O)Nc1nnc(N2CCCCCC2)s1)c1nc(-c2ccccn2)nc2c1CCC2 [Compound 70, N-[5-(azepan-1-yl)-1,3,4-thiadiazol-2-yl]-2-{methyl[2-(pyridin-2-yl)-5H,6H,7H-cyclopenta[d]pyrimidin-4-yl]amino}acetamide]",7.4
7,"c1ccc(-c2nc3c(c(N4CC5CC4CO5)n2)CCC3)nc1 (centres unmarked) [Compound 72, 5-[2-(pyridin-2-yl)-5H,6H,7H-cyclopenta[d]pyrimidin-4-yl]-2-oxa-5-azabicyclo[2.2.1]heptane]",5.5
8,"CN(Cc1ccccn1)c1nc(-c2ccccn2)nc2c1CCC2 [Compound 73, N-methyl-2-(pyridin-2-yl)-N-[(pyridin-2-yl)methyl]-5H,6H,7H-cyclopenta[d]pyrimidin-4-amine]",6.8
9,"COc1ccc(NC(=O)CN(C)c2nc(-c3ccccn3)nc3c2CCC3)cc1 [Compound 75, N-(4-methoxyphenyl)-2-{methyl[2-(pyridin-2-yl)-5H,6H,7H-cyclopenta[d]pyrimidin-4-yl]amino}acetamide]",7.5
10,"c1ccc(-c2nc3c(c(N4CCCc5ccccc54)n2)CCC3)nc1 [Compound 76, 1-[2-(pyridin-2-yl)-5H,6H,7H-cyclopenta[d]pyrimidin-4-yl]-1,2,3,4-tetrahydroquinoline]",6
11,"CN(CC(=O)NC1CCCCC1)c1nc(-c2ccccn2)nc2c1CCC2 [Compound 78, N-cyclohexyl-2-{methyl[2-(pyridin-2-yl)-5H,6H,7H-cyclopenta[d]pyrimidin-4-yl]amino}acetamide]",7.4
12,"CCN(Cc1ncccn1)c1nc(-c2ccccn2)nc2c1CCC2 [Compound 80, N-ethyl-2-(pyridin-2-yl)-N-[(pyrimidin-2-yl)methyl]-5H,6H,7H-cyclopenta[d]pyrimidin-4-amine]",6.8
13,"CN(Cc1ncccn1)c1nc(-c2ccccn2)nc2c1CCC2 [Compound 81, N-methyl-2-(pyridin-2-yl)-N-[(pyrimidin-2-yl)methyl]-5H,6H,7H-cyclopenta[d]pyrimidin-4-amine]",6.8
14,"CN(Cc1nc2ccccc2o1)c1nc(-c2ccccn2)nc2c1CCC2 [Compound 82, N-[(1,3-benzoxazol-2-yl)methyl]-N-methyl-2-(pyridin-2-yl)-5H,6H,7H-cyclopenta[d]pyrimidin-4-amine]",6.8
15,"c1ccc(-c2nc3c(c(N4CCc5ccccc5CC4)n2)CCC3)nc1 [Compound 83, 3-[2-(pyridin-2-yl)-5H,6H,7H-cyclopenta[d]pyrimidin-4-yl]-2,3,4,5-tetrahydro-1H-3-benzazepine]",6.9
16,"COCCN(C)c1nc(-c2ccccn2)nc2c1CCC2 [Compound 84, N-(2-methoxyethyl)-N-methyl-2-(pyridin-2-yl)-5H,6H,7H-cyclopenta[d]pyrimidin-4-amine]",6.6

# Other lines, results leading:
row,pEC50,SMILES
1,7.5,"C[C@H](C(=O)NC(C)(C)C)N(C)c1nc(-c2ccccn2)nc2c1CCC2 [Compound 51, (2R)—N-tert-butyl-2-{methyl[2-(pyridin-2-yl)-5H,6H,7H-cyclopenta[d]pyrimidin-4-yl]amino}propanamide]"
2,6.8,"C[C@@H](C(=O)NC(C)(C)C)N(C)c1nc(-c2ccccn2)nc2c1CCC2 [Compound 52, (2S)—N-tert-butyl-2-{methyl[2-(pyridin-2-yl)-5H,6H,7H-cyclopenta[d]pyrimidin-4-yl]amino}propanamide]"
3,7.5,"CN(CC(=O)NC(C)(C)C)c1nc(-c2cc(C3CC3)ccn2)nc2c1CCC2 [Compound 57, N-tert-butyl-2-{[2-(4-cyclopropylpyridin-2-yl)-5H,6H,7H-cyclopenta[d]pyrimidin-4-yl](methyl)amino}acetamide]"
4,6.7,"CN(CC(=O)NC(C)(C)C)c1nc(-c2cc(F)ccn2)nc2c1CCC2 [Compound 58, N-tert-butyl-2-{[2-(4-fluoropyridin-2-yl)-5H,6H,7H-cyclopenta[d]pyrimidin-4-yl](methyl)amino}acetamide]"
5,6.8,"Cc1cccc(-c2nc3c(c(N(C)CC(=O)NC(C)(C)C)n2)CCC3)n1 [Compound 59, -tert-butyl-2-{methyl[2-(6-methylpyridin-2-yl)-5H,6H,7H-cyclopenta[d]pyrimidin-4-yl]amino}acetamide]"
6,7.6,"Cc1cnc(-c2nc3c(c(N(C)CC(=O)NC(C)(C)C)n2)CCC3)cc1C [Compound 60, N-tert-butyl-2-{[2-(4,5-dimethylpyridin-2-yl)-5H,6H,7H-cyclopenta[d]pyrimidin-4-yl](methyl)amino}acetamide]"
7,7.1,"CN(CC(=O)NC(C)(C)CO)c1nc(-c2ccccn2)nc2c1CCC2 [Compound 61, N-(1-hydroxy-2-methylpropan-2-yl)-2-{methyl[2-(pyridin-2-yl)-5H,6H,7H-cyclopenta[d]pyrimidin-4-yl]amino}acetamide]"
8,7.6,"Cc1ccnc(-c2nc3c(c(N(C)CC(=O)NC(C)(C)CO)n2)CCC3)c1 [Compound 62, N-(1-hydroxy-2-methylpropan-2-yl)-2-{methyl[2-(4-methylpyridin-2-yl)-5H,6H,7H-cyclopenta[d]pyrimidin-4-yl]amino}acetamide]"
9,7.2,"CN(CC(=O)NC(C)(C)CCO)c1nc(-c2ccccn2)nc2c1CCC2 [Compound 63, N-(4-hydroxy-2-methylbutan-2-yl)-2-{methyl[2-(pyridin-2-yl)-5H,6H,7H-cyclopenta[d]pyrimidin-4-yl]amino}acetamide]"
10,7.8,"Cc1ccnc(-c2nc3c(c(N(C)CC(=O)NC4CCCC4)n2)CCC3)c1 [Compound 64, N-cyclopentyl-2-{methyl[2-(4-methylpyridin-2-yl)-5H,6H,7H-cyclopenta[d]pyrimidin-4-yl]amino}acetamide]"
11,7.6,"Cc1ccnc(-c2nc3c(c(N(C)CC(=O)NC4(C)CCOC4)n2)CCC3)c1 (centres unmarked) [Compound 65, 2-{methyl[2-(4-methylpyridin-2-yl)-5H,6H,7H-cyclopenta[d]pyrimidin-4-yl]amino}-N-(3-methyloxolan-3-yl)acetamide]"
12,7.7,"Cc1ccnc(-c2nc3c(c(N(C)CC(=O)Nc4cccc(F)c4)n2)CCC3)c1 [Compound 66, N-(3-fluorophenyl)-2-{methyl[2-(4-methylpyridin-2-yl)-5H,6H,7H-cyclopenta[d]pyrimidin-4-yl]amino}acetamide]"
13,6.6,"CN(CC(=O)NC(C)(C)C)c1cc(-c2ncccn2)nc2c1CCC2 [Compound 67, N-tert-butyl-2-{methyl[2-(pyrimidin-2-yl)-5H,6H,7H-cyclopenta[b]pyridin-4-yl]amino}acetamide]"
14,7.2,"Cc1ccnc(-c2cc(N(C)CC(=O)NC(C)(C)C)c3c(n2)CCC3)c1 [Compound 68, N-tert-butyl-2-{methyl[2-(4-methylpyridin-2-yl)-5H,6H,7H-cyclopenta[b]pyridin-4-yl]amino}acetamide]"
15,7,"CN(CC(=O)Nc1ccccc1)c1nc(-c2ccccn2)nc2c1CCC2 [Compound 77, 2-{methyl[2-(pyridin-2-yl)-5H,6H,7H-cyclopenta[d]pyrimidin-4-yl]amino}-N-phenylacetamide]"
16,6.5,"CN(CC(=O)NC1CCOCC1)c1nc(-c2ccccn2)nc2c1CCC2 [Compound 79, 2-{methyl[2-(pyridin-2-yl)-5H,6H,7H-cyclopenta[d]pyrimidin-4-yl]amino}-N-(oxan-4-yl)acetamide]"

# — US11746100B2 (GLOBAL BLOOD THERAPEUTICS, INC., priority 2020, dated 2023)
